Data as given in the CheMixHub viscosity set.
Where “and” joins values, the source holds several entries; their conditions need not be identical. Equal values may be shown once.

Assay: xn = mol fraction of the nth substance listed

CCCC(=O)[O-].[Na+] + O
298.15 K, 101.33 kPa
Conditions	viscosity [mPa·s]
x1 = 0.008927	1.136
x1 = 0.0177	1.436
x1 = 0.02631	1.793
x1 = 0.03478	2.235

CCCCCCN + c1ccccc1
303.15 K, 101 kPa
Conditions	viscosity [mPa·s]
x2 = 0.105	0.6977
x2 = 0.2983	0.645
x2 = 0.4918	0.6006
x2 = 0.5946	0.5814
x2 = 0.6955	0.5639
x2 = 0.7954	0.5506
x2 = 0.8997	0.549

C1N2CN3CN1CN(C2)C3 + [2H]O[2H]
viscosity [mPa·s], 101 kPa
Conditions	x1 = 0.004002	x1 = 0.007971	x1 = 0.01158	x1 = 0.01549	x1 = 0.01969
293.15 K	1.217	1.252	1.311	1.396	1.515
298.15 K	1.106	1.141	1.189	1.258	1.35
300.15 K	1.007	1.036	1.077	1.135	1.219
305.15 K	0.92	0.962	1.002	1.049	1.108

CC=CC(=O)O + CC(C)=O
viscosity [mPa·s], 101 kPa
Conditions	x1 = 0.0488	x1 = 0.1	x1 = 0.1504	x1 = 0.1994	x1 = 0.2534	x1 = 0.2705
298.15 K	0.3461	0.3887	0.4349	0.4858	0.5435	0.5686
303.15 K	0.3299	0.3718	0.4141	0.461	0.5149	0.5368
308.15 K	0.3157	0.3531	0.3935	0.4352	0.4883	0.5066
313.15 K	0.3017	0.3379	0.3756	0.4196	0.463	0.4869
323.15 K	0.2771	0.3079	0.342	0.3849	0.4184	0.438

Oc1ccccc1 + CC(C)=O
viscosity [mPa·s], 101 kPa
Conditions	293.2 K	302.95 K	313.25 K	322.95 K
x1 = 0.0613	–	0.36	0.328	0.299
x1 = 0.0926	0.429	–	–	–
x1 = 0.1303	–	0.441	0.399	0.36
x1 = 0.1837	0.56	–	–	–
x1 = 0.1912	–	0.521	0.47	0.422
x1 = 0.2695	–	0.67	0.59	0.53
x1 = 0.2749	0.755	–	–	–
x1 = 0.3325	–	0.808	0.711	0.628
x1 = 0.3763	1.055	–	–	–
x1 = 0.4181	–	1.058	0.904	0.794
x1 = 0.458	1.379	–	–	–
x1 = 0.4832	–	1.319	1.101	0.95
x1 = 0.5364	1.853	–	–	–
x1 = 0.5583	–	1.658	1.363	1.15
x1 = 0.6341	2.75	–	–	–
x1 = 0.6402	–	2.18	1.741	1.425
x1 = 0.6982	3.59	–	–	–
x1 = 0.7215	–	2.91	2.23	1.785
x1 = 0.7829	4.97	–	–	–
x1 = 0.8187	–	3.915	2.875	2.245
x1 = 0.8885	–	4.905	3.465	2.615
x1 = 0.8891	7.3	–	–	–

CCCCCCN + CCOCCO
308.15 K, 101 kPa
Conditions	viscosity [mPa·s]
x2 = 0.1321	0.7283
x2 = 0.255	0.8766
x2 = 0.3698	1.026
x2 = 0.4772	1.172
x2 = 0.5779	1.305
x2 = 0.6726	1.426
x2 = 0.7616	1.469
x2 = 0.8456	1.457
x2 = 0.9249	1.445

COCCOCCOC + COC(=O)OC
viscosity [mPa·s], 101.33 kPa
Conditions	298.15 K	308.15 K	318.15 K
x1 = 0.0428	0.608	0.536	0.485
x1 = 0.0832	0.626	0.55	0.496
x1 = 0.149	0.66	0.576	0.516
x1 = 0.2102	0.693	0.6	0.536
x1 = 0.2752	0.723	0.626	0.556
x1 = 0.3253	0.752	0.647	0.571
x1 = 0.3937	0.784	0.674	0.592
x1 = 0.4775	0.818	0.701	0.615
x1 = 0.5765	0.855	0.733	0.641
x1 = 0.6623	0.884	0.758	0.661
x1 = 0.7219	0.903	0.774	0.675
x1 = 0.8014	0.93	0.792	0.691
x1 = 0.8649	0.949	0.807	0.702
x1 = 0.8944	0.958	0.813	0.708
x1 = 0.9047	0.961	0.816	0.71
x1 = 0.9232	0.966	0.821	0.713
x1 = 0.9316	0.969	0.823	0.714
x1 = 0.9372	0.97	0.823	0.715
x1 = 0.9528	0.975	0.826	0.718

COCCOCCOC + CC1COC(=O)O1
viscosity [mPa·s], 101.33 kPa
Conditions	298.15 K	308.15 K	318.15 K
x1 = 0.021	2.427	2	1.666
x1 = 0.0421	2.372	1.94	1.641
x1 = 0.0759	2.295	1.87	1.565
x1 = 0.0976	2.245	1.835	1.529
x1 = 0.1779	2.081	1.693	1.42
x1 = 0.2468	1.953	1.595	1.332
x1 = 0.3441	1.782	1.458	1.216
x1 = 0.3815	1.719	1.412	1.176
x1 = 0.4148	1.669	1.362	1.145
x1 = 0.4853	1.573	1.291	1.083
x1 = 0.5455	1.488	1.226	1.038
x1 = 0.6708	1.324	1.101	0.938
x1 = 0.7643	1.223	1.017	0.877
x1 = 0.8341	1.148	0.959	0.829
x1 = 0.8725	1.107	0.928	0.804
x1 = 0.9275	1.06	0.889	0.774
x1 = 0.9513	1.035	0.874	0.758
x1 = 0.9796	1.005	0.852	0.739

CCCCCCN + CCCCN(CCCC)CCCC
viscosity [mPa·s], 101 kPa
Conditions	x2 = 0.1032	x2 = 0.1936	x2 = 0.3936	x2 = 0.4924	x2 = 0.6079	x2 = 0.782	x2 = 0.9153
303.15 K	0.7562	0.7958	0.8857	0.9301	0.9836	1.063	1.125
313.15 K	0.6517	0.6853	0.7606	0.7985	0.8436	0.9122	0.9652

CNc1ccccc1 + CCCO
viscosity [mPa·s], 101.33 kPa
Conditions	x1 = 0.1008	x1 = 0.1995	x1 = 0.2999	x1 = 0.4015	x1 = 0.5012	x1 = 0.6016	x1 = 0.7016	x1 = 0.8003	x1 = 0.9016
303.15 K	1.608	1.532	1.502	1.494	1.502	1.527	1.551	1.61	1.688
308.15 K	1.433	1.37	1.345	1.337	1.347	1.368	1.392	1.446	1.512
313.15 K	1.29	1.235	1.21	1.204	1.219	1.235	1.26	1.306	1.347
318.15 K	1.161	1.116	1.096	1.092	1.097	1.123	1.145	1.188	1.247
323.15 K	1.051	1.01	1	0.9995	1.012	1.026	1.047	1.091	1.142

C1N2CN3CN1CN(C2)C3 + O
101 kPa
Conditions	viscosity [mPa·s]
293.15 K, x1 = 0.003601	1.028
293.15 K, x1 = 0.007176	1.072
293.15 K, x1 = 0.01043	1.127
293.15 K, x1 = 0.01396	1.205
293.15 K, x1 = 0.01775	1.308
297.35 K, x1 = 0.022	1.515
297.35 K, x1 = 0.031	1.736
297.35 K, x1 = 0.041	2.087
297.55 K, x1 = 0.052	2.537
298.15 K, x1 = 0.003601	0.928
298.15 K, x1 = 0.007176	0.979
298.15 K, x1 = 0.01043	1.033
298.15 K, x1 = 0.01396	1.101
298.15 K, x1 = 0.01775	1.185
300.15 K, x1 = 0.003601	0.83
300.15 K, x1 = 0.007176	0.874
300.15 K, x1 = 0.01043	0.922
300.15 K, x1 = 0.01396	0.982
300.15 K, x1 = 0.01775	1.058
302.15 K, x1 = 0.022	1.389
302.35 K, x1 = 0.031	1.627
302.35 K, x1 = 0.052	2.222
302.75 K, x1 = 0.041	1.832
305.15 K, x1 = 0.003601	0.74
305.15 K, x1 = 0.007176	0.777
305.15 K, x1 = 0.01043	0.822
305.15 K, x1 = 0.01396	0.884
305.15 K, x1 = 0.01775	0.967
306.95 K, x1 = 0.031	1.483
307.35 K, x1 = 0.022	1.321
307.35 K, x1 = 0.041	1.689
307.35 K, x1 = 0.052	2.056
311.95 K, x1 = 0.022	1.251
312.15 K, x1 = 0.031	1.375
312.15 K, x1 = 0.041	1.595
312.15 K, x1 = 0.052	1.864

Oc1ccccc1 + C[N+](C)(C)CCO.[Cl-]
viscosity
Conditions	101 kPa	101.33 kPa
293.15 K, x2 = 0.2	–	61.78 mPa·s
293.15 K, x2 = 0.25	–	72.04 mPa·s
293.15 K, x2 = 0.333	137.7 mPa·s	–
298.15 K, x1 = 0.7	–	122.5 mPa·s
298.15 K, x1 = 0.8	–	56.11 mPa·s and 39.28 mPa·s and 30.65 mPa·s
298.15 K, x1 = 0.9	–	26.18 mPa·s
298.15 K, x2 = 0.333	99.81 mPa·s	–
303.15 K, x2 = 0.2	36.55 mPa·s	37.73 mPa·s
303.15 K, x2 = 0.25	41.2 mPa·s	43.1 mPa·s
303.15 K, x2 = 0.333	75.03 mPa·s and 76.44 mPa·s	–
308.15 K, x2 = 0.333	57.85 mPa·s	–
313.15 K, x2 = 0.2	23.57 mPa·s	24.63 mPa·s
313.15 K, x2 = 0.25	26.84 mPa·s	27.84 mPa·s
313.15 K, x2 = 0.333	46.41 mPa·s and 45.29 mPa·s	–
318.15 K, x2 = 0.333	35.93 mPa·s	–
323.15 K, x2 = 0.2	16.21 mPa·s	17.07 mPa·s
323.15 K, x2 = 0.25	18.62 mPa·s	19.11 mPa·s
323.15 K, x2 = 0.333	30.68 mPa·s and 28.71 mPa·s	–
